{"source": "patent US20050272649A1", "about": "“Conjoint administration of morphogens and ACE inhibitors in treatment of chronic renal failure” (priority 2002, published 2005)", "key": {"[1]": {"system": "streptozotocin diabetic Sprague-Dawley rats", "assay_type": "in vivo", "details": "preliminary / unpublished studies"}, "[2]": {"system": "hypertension", "details": "enalapril 20 mg per day; three-month study; cited from earlier work"}, "[3]": {"system": "streptozotocin diabetic Sprague-Dawley rats", "assay_type": "in vivo", "details": "for GFR (ml/min/100 g bw): inulin clearance at 32 weeks; for mesangial matrix accumulation (in words): PAS / Trichrome histology at 32 weeks; for kidney weight / renal hypertrophy (in words): treatment weeks 16-32, versus vehicle-treated diabetic rats", "protocol": "A long-term streptozotocin model of diabetic nephropathy was used to test and compare the therapeutic actions of BMP-7 with those of Enalapril. The study design was a treatment protocol beginning at 16 weeks when glomerular hypertrophy and proteinuria were established. The effects of therapy with BMP-7 (10, 30, or 100 μg/kg iv, biw) were compared to a maximal dose of Enalapril (20 mg/kg) and to a vehicle control. […] The GFR of 32 week diabetic Enalapril treated rats was 0.58±0.06 (not significant compared to vehicle treated and sham injected rats 0.55±0.02).\nAnimals: Female Sprague-Dawley rats 10 weeks of age weighing 190-220 g were used. Animals were allowed free access to standard rat chow and to tap water. Diabetes mellitus was induced by a single tail-vein injection of Streptozotocin (STZ 62 mg/kg of body weight, Sigma chemical company, St. Louis, Mo.) dissolved in normal saline at day 0. The diabetic state was confirmed 72 hours later by the determination of blood glucose concentration>300 mg/dl. From day 3, all the diabetic rats received daily subcutaneous injections of 1.0-7.0 u human recombinant long-acting insulin injection (Eli Lilly & Co., Indianapolis, Ind.) as required to maintain the blood glucose concentration between 300-500 mg/dl. Tail blood glucose levels were measured twice a week with an Accu—Chek™ Advantage meter (Roche Diagnostic Corporation, Indianapolis, Ind.). Body weights were taken once a week. Food and water intake were monitored daily.\nRenal hypertrophy was well developed at 16 weeks prior to treatment with vehicle, BMP-7, or enalapril. […], animals were divided into 8 groups. Group 1 were 16 weeks of DM. Group 2 were 16 weeks normal controls. Group 3 DM animals were treated with tail-vein injection of vehicle twice a week for 16 weeks. Group 4, Group 5, and Group 6 were DM animals treated with tail-vein injections of BMP-7 100, 30, and 10 μg/kg body weight respectively twice a week for 16 weeks. Group 7 were treated with Enalapril 20 mg/kg through the drinking water for 16 weeks. […] Group 1 and Group 2 animals were sacrificed at 16 weeks. The others were sacrificed at 32 weeks. All treatments began at 16 weeks and continued through 32 weeks. Glomerular filtration rate (GFR), urine albumin excretion, kidney weight, glomerular area, mesangial matrix area, interstitial volume, monocyte and macrophage infiltration, thickness of glomerular basement membrane (GBM) and glomerulosclerosis were measured.\nRenal Function: In all animals, glomerular filtration rate (GFR) was measured as the clearance of inulin. Rats were anesthetized with a Ketamine/Xylozine cocktail. A catheter was inserted into the femoral vein under a dissecting microscope for infusion. Another catheter was placed into the femoral artery for collecting blood samples. Urine was collected by bladder cannulation.\nAfter the completion of surgery, a bolus of 2 ml/kg of 3% inulin (Cypros Pharmaceutical Corp, W. Carlsbad, Calif.) and 0.2% p-aminohippurate (PAH) in normal saline was infused as a priming load, followed by a sustaining infusion of the same solution at the rate of 8 ml/h·kg. Urine collection was initiated for three 20-minute collection periods after an hour of equilibration. An arterial blood sample was obtained during each clearance period. Plasma and urine were analyzed for inulin.\nUrine volume was measured and urinary protein concentration was determined with a Bio-Rad protein assay.\nPreparation of Kidneys: After the clearance studies, the rats were euthanized. Both kidneys were rapidly removed and placed in ice-cold phosphate buffered saline (PBS). Kidneys were weighed and then sliced on a cold glass plate. Two 2 mm coronal sections were immersed in Histochoice and in 10% buffered formalin. Kidney sections were embedded in paraffin and cut at 3 μm and stained with hematoxylin and eosin, Gomori's Trichrome and periodic acid Schiff (PAS).\nRenal Morphology: The morphometric analysis was done in a blind manner. […]"}, "[4]": {"system": "unilateral ureteral ligation in Sprague-Dawley rats", "details": "cited from earlier work"}, "[5]": {"system": "streptozotocin-induced diabetic Sprague-Dawley rats", "test": "Streptozotocin-induced diabetic nephropathy model (Example 3)", "assay_type": "in vivo, rat", "details": "OP-1 30 and 100 μg/kg, enalapril 50 and 100 mg/L, or combination; diabetic about 140 mg/day", "protocol": "Streptozotocin kills pancreatic β cells and induces type I diabetes (for review, see Cheta et al. (1998) J Pediatr Endocrinol Metab 11:11-9). It is widely used to induce experimental diabetic nephropathy in animals (see FIG. 22). Adult female Sprague-Dawley rats (weighing 200-250 g) were intraperitoneally injected with streptozotocin (60 mg/kg body weight) to induce hyperglycemia. Hyperglycemic rats then received daily injections of insulin to maintain blood glucose between 200-400 mg/dL. At week 16 when renal function declined, animals were treated weekly with OP-1 (10, 30 or 100 μg/kg body weight), enalapril (50 or 100 mg/L in drinking water) or a combination of OP-1 and enalapril. Control animals without streptozotocin treatment were handled in all other ways like treated animals. Animals were sacrificed at week 32 post-streptozotocin treatment."}, "[6]": {"details": "Enalapril 20 mg/kg in drinking water (100 mg/l)"}, "[7]": {"details": "Enalapril 20 mg/kg in drinking water (100 mg/l), weeks 16-32"}, "[8]": {"details": "Enalapril 20 mg/kg in drinking water (100 mg/l), weeks 16-32, at 32 weeks"}, "[9]": {"details": "treatment weeks 16-32, listed as Enalapril"}}, "note": "“Also recorded” adds a separate entry of the source. Like-named read-outs stand apart in the source and are kept apart here.", "data": [{"smiles": "CCOC(=O)[C@H](CCc1ccccc1)N[C@@H](C)C(=O)N1CCC[C@H]1C(=O)O", "note": "[enalapril, N-(1-ethoxycarbonyl-3-phenylpropyl)-L-ananyl-L-proline, reference compound]", "values": [{"measurement": "Enalapril response: dose and route of administration compared", "setting": "[1]", "value": "no difference in the Enalapril response between 5 and 20 mg/kg; also recorded: equally effective as more arduous means of administering Enalapril"}, {"measurement": "decrease in diastolic blood pressure", "setting": "[2]", "value": 7.2, "unit": "mm Hg"}, {"measurement": "decrease in systolic blood pressure", "setting": "[2]", "value": 8.2, "unit": "mm Hg"}, {"measurement": "renal BMP-7 expression (in situ hybridization)", "setting": "[3]; 32 weeks", "value": "restored BMP-7 expression at high levels in the collecting duct; also recorded: restored BMP-7 expression in its normal pattern at high levels; also recorded: restored the normal distribution of BMP-7 expression"}, {"measurement": "renal Wnt4 expression (in situ hybridization)", "setting": "[3]; 32 weeks", "value": "without affecting Wnt4 expression; also recorded: do not affect Wnt4 expression; also recorded: had no effect on Wnt4 expression"}, {"measurement": "monocyte/macrophage tubulointerstitial infiltration", "setting": "[3]; ED-1 positive cells, 32 weeks", "value": "decreased the tubulointerstitial infiltration"}, {"measurement": "Cause-Mortality hypoglycemia", "setting": "[3]; [6]", "value": "1/10"}, {"measurement": "Cause-Mortality ketoacidosis", "setting": "[3]; [6]", "value": "1/10"}, {"measurement": "Cause-Mortality unknown", "setting": "[3]; [6]", "value": "1/10"}, {"measurement": "Body Weight (g) End", "setting": "[3]; [7]", "value": "294.9 ± 4.4", "unit": "g"}, {"measurement": "Body Weight (g) Weight Gain", "setting": "[3]; [7]", "value": "78.7 ± 5.9", "unit": "g"}, {"measurement": "Protein Ex (mg/day), urine protein excretion", "setting": "[3]; [8]", "value": "33.59 ± 7.58", "unit": "mg/day"}, {"measurement": "kidney weight", "setting": "[3]; [8]", "value": "1.09 ± 0.04", "unit": "g"}, {"measurement": "kidney weight", "setting": "[3]; Enalapril 20 mg/kg in drinking water (100 mg/l), weeks 16-32, at 32 weeks, listed as E", "value": "1.09 ± 0.04", "unit": "g"}, {"measurement": "Mortality", "setting": "[3]; Enalapril 20 mg/kg in drinking water (100 mg/l), weeks 16-32, deaths/animals", "value": "3/10"}, {"measurement": "GFR (ml/min/100 g bw)", "setting": "[3]; Enalapril 20 mg/kg in drinking water (100 mg/l), weeks 16-32, listed as E", "value": "0.58 ± 0.06", "unit": "ml/min/100 g bw"}, {"measurement": "GFR (ml/min/100 g bw)", "setting": "[3]; Enalapril 20 mg/kg in drinking water (100 mg/l), weeks 16-32, listed as Enalapril", "value": "0.58±0.06", "unit": "ml/min/100 g bw"}, {"measurement": "cortical interstitial area / volume", "setting": "[3]; Enalapril 20 mg/kg, weeks 16-32, DM vehicle 13.1±0.7%", "value": "10.3±0.4", "unit": "%"}, {"measurement": "mesangial matrix accumulation (in words)", "setting": "[3]", "value": "more mesangial matrix accumulation"}, {"measurement": "mesangial matrix accumulation (in words)", "setting": "[3]; listed as Enalapril", "value": "less effective than intermediate or high dose BMP-7 in eliminating accumulation of mesangial matrix"}, {"measurement": "glomerulosclerosis (in words)", "setting": "[3]; treatment weeks 16-32", "value": "decreased glomerular sclerosis; also recorded: markedly reduced"}, {"measurement": "urine protein excretion / proteinuria / albuminuria (in words)", "setting": "[3]; treatment weeks 16-32", "value": "reversed"}, {"measurement": "GFR (in words)", "setting": "[3]; treatment weeks 16-32, versus vehicle-treated diabetic and normal rats", "value": "normal or greater; also recorded: restored GFR to normal or slightly above normal"}, {"measurement": "kidney weight / renal hypertrophy (in words)", "setting": "[3]", "value": "partially reversed diabetic renal hypertrophy"}, {"measurement": "kidney weight / renal hypertrophy (in words)", "setting": "[3]; listed as Enalapril", "value": "equal in partially reversing kidney hypertrophy; also recorded: equally effective"}, {"measurement": "glomerular area / glomerular hypertrophy (in words)", "setting": "[3]; [9]", "value": "significantly decreased; also recorded: equally effective"}, {"measurement": "glomerulosclerosis (in words)", "setting": "[3]; [9]", "value": "less effective in preventing glomerulosclerosis; also recorded: less so by Enalapril"}, {"measurement": "interstitial volume (in words)", "setting": "[3]; [9]", "value": "significantly decreased; also recorded: equally effective"}, {"measurement": "systolic blood pressure (tail artery cuff)", "setting": "[3]; [9]", "value": "controlled hypertension throughout the course of therapy; also recorded: reversed the hypertension of the diabetic rats; also recorded: normalized blood pressure during the entire 16 week course of therapy; also recorded: restored blood pressure to normal"}, {"measurement": "tubular atrophy", "setting": "[4]; UUO rats", "value": "an effect not shared with ACEI enalapril"}, {"measurement": "renal blood flow (RBF)", "setting": "[4]; during UUO", "value": "also stimulated RBF"}, {"measurement": "proteinuria level", "setting": "[5]", "value": "almost normal level; also recorded: significantly reduced the proteinuria level"}]}]}
